In patent US7786090B2, “Methods and compositions for treating and preventing neurologic disorders” (President and Fellows of Harvard College, priority 2006, dated 2010):
Square brackets hold non-standard residues; d marks the D form. Ends that are not written are not given here. Peptide text beside a SMILES is read from it. * marks the point of attachment. pS = N[C@@H](COP(=O)(O)O)C(=O)O; Cbz = O=C(OCc1ccccc1)*

Tests used:
[1] = target: Pin1 (Homo sapiens, UniProt Q13526); settings: Daum et al. 2006; cited from earlier work
Sequence of Pin1 (Q13526 whole entry, species assumed): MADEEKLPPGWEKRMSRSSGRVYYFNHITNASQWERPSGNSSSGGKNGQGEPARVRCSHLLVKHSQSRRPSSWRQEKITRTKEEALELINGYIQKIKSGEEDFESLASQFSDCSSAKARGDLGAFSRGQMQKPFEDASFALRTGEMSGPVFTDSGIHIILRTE

[2] = test system: JNK signaling; assay: JNK signaling in cerebellar granule neurons (phosphorylation of c-Jun and BIMEL); type: cell-based, rat; settings: granule neurons treated for 5 h with 5 μM MG132
Experimental: FIG. 1C is a series of immunoblot photographs. Lysates of cerebellar granule neurons untreated or treated for 5 h with 5 μM MG132 were subjected to a pulldown with GST-Pin1 WW, followed by immunoblotting for BIM. Lower panels show the expression of BIMEL and phosphorylated c-Jun.
The phosphorylation of BIMEL at Ser65 triggers apoptosis specifically in neurons but not in non-neural cells. A critical regulatory post-phosphorylation event is the prolyl isomerization of proteins at sites of proline-dependent phosphorylation. A major function of Pin1 is to drive cells through mitosis in proliferating cells. Pin1 is also highly expressed in the nervous system. To assess whether Pin1 binds to Ser65-phosphorylated BIMEL in vitro, we used a GST pulldown assay. We expressed BIMEL in 293T cells alone or together with a constitutively active form of the kinase MEKK1 (MEKK1Δ), an upstream activator of JNK. Expression of MEKK1Δ results in the robust phosphorylation of BIMEL at Ser65, which is reflected by a mobility shift of BIMEL (FIG. 1A). Recombinant GST-Pin1, but not GST, specifically co-precipitated phosphorylated but not unphosphorylated BIMEL from cell lysates (FIG. 1A). […] In other experiments, we tested if a recombinant GST fusion protein containing the WW domain of Pin1 associates with BIMEL. The WW domain of Pin1 interacts specifically with phosphoSer/Thr-Pro motifs. […]

[3] = test system: interaction of Pin1 and JIP3; assay: Co-immunoprecipitation of endogenous Pin1 and JIP3 in granule neurons; type: cell-based, rat; settings: exposure of granule neurons to JNK activating stimuli
Experimental: Lysates from granule neurons that were kept in conditioned full medium (CM) or starved for 2 h (Starv) were immunoprecipitated using a JIP3 antibody, followed by immunoblotting for Pin1. Left panels show the expression of JIP3 and Pin1.
To determine whether the binding of Pin1 to JIP3 is regulated by an apoptotic stimulus, we measured the interaction of endogenous Pin1 and JIP3 in granule neurons that were left in full medium (conditioned medium, CM) or that were starved for two hours.

[4] = target: T1, interaction of Pin1 with JIP3 (Homo sapiens, UniProt Q13526); assay: GST-Pin1 pulldown with increasing Pintide, Pin1-JIP3 interaction; type: binding; design: dose or concentration left out as unconfirmed; settings: lysates of 293T cells transfected with FLAG-JIP3, Pintide 0, 2.5, 5, 10, 25
T1 construct: made in house; FLAG-JIP3: lysate of transfected 293T cells
T1 sequence (Q13526 whole entry): as the sequence (Q13526 whole entry, species assumed) above
Experimental: (§1) FIG. 2G is a series of immunoblot photographs. Lysates of 293T cells transfected with FLAG-JIP3 or FLAG-BIMEL together with FLAG-MEKK1Δ were subjected to a GST-Pin1 pulldown assay in the presence of increasing amount of Pintide peptide ([…]), followed by immunoblotting for FLAG and GST. Representative immunoblots of three independent experiments are shown.
(§2) GST-pulldown assays were performed as described by Ryo et al., Mol. Cell 12: 1413-1426, 2003. Immunoprecipitations and subcellular fractionations were performed as described by Konishi et al., Science 303: 1026-1030, 2004. The postnuclear supernatant was further centrifuged at 10,000 g for 30 min to pellet the mitochondrially-enriched heavy membrane (HM) fraction. Antibodies to BIM (Stressgen); phospho65 BIM antibody (Biosource); HA, HSP60, JIP3, GST (Santa Cruz Biotechnology); FLAG (Sigma); P-c-Jun, MKK7, Pin1 (Cell Signaling); SP1, JNK (Upstate); GFP (Molecular Probes) are available commercially.
(§3) Thus, similar to BIMEL, JIP3 interacts with Pin1 in a phosphorylation-dependent manner.

[5] = target: T2, interaction of Pin1 with BIMEL (Homo sapiens, UniProt Q13526); assay: GST-Pin1 pulldown with increasing Pintide, Pin1-BIMEL interaction; type: binding; settings: lysates of 293T cells transfected with FLAG-BIMEL and FLAG-MEKK1Δ, Pintide 0, 2.5, 5, 10, 25, 50 mM
T2 construct: made in house; FLAG-BIMEL: lysate of 293T cells co-transfected with FLAG-MEKK1Δ
T2 sequence (Q13526 whole entry): as the sequence (Q13526 whole entry, species assumed) above
Experimental: as §1, §2, §3

Compound | inhibition of Pin1 [1] | interaction of Pin1 and JIP3 [3] | other results
COc1ccc(F)cc1C(=O)C1(C)CCc2ccccc21 (racemic) [rac-9] | inhibit Pin1 |  | 
COc1ccc(F)cc1C(=O)[C@]1(C)CCc2ccccc21 [(R)-9] | inhibit Pin1 |  | 
CC(C)C[C@@H](C=O)NC(=O)[C@H](CC(C)C)NC(=O)[C@H](CC(C)C)NC(=O)OCc1ccccc1 [MG132] (Cbz-Leu-Leu-Leu-aldehyde) |  | led to a decrease | JNK signaling [2]: activated JNK signaling
OO [hydrogen peroxide] |  | led to a decrease | 
WFYpSPRLKK (WFY[pS]PRLKK) [Pintide] |  |  | disruption of the interaction of Pin1 with JIP3 [4]: disrupted the interaction of Pin1 with JIP3 and BIMEL in a dose-dependent manner; disruption of the interaction of Pin1 with BIMEL [5]: disrupted the interaction of Pin1 with JIP3 and BIMEL in a dose-dependent manner
